Assay results from patent US6338963B1, “Use of carbon monoxide dependent guanylyl cyclase modifiers to stimulate neuritogenesis” (NeoTherapeutics, Inc., priority 1994, dated 2002).

Legend:
GDNF = assay: Two-site ELISA of growth factor protein in rat brain and spinal cord: GDNF; type: in vivo, F344 rats
Method: Adult female F344 rats were given either AIT-082 (doses: 30 mg/kg/day or a higher dose of 30 mg/ml (˜3,000 mg/kg/day); n=6 rats per group) in their drinking water, or water alone, as a vehicle for control. The duration of the study was seven days, at which time the rats were anesthesized and perfused with ice-cold saline. The brains of the rats were rapidly removed. The brains were placed on a chilled glass plate and dissected into the following regions: basal forebrain, frontal cortex, parietal cortex, cerebellum, spinal cord, and hippocampal formation. Tissues were stored at −70° C. until assayed in a specific two-site ELISA for either NGF, BDNF, NT-3, or GNDF.
The results are shown in FIGS. 45 (BDNF), 46 (NT-3), 47 (GDNF) and 48 (NGF). For the results shown in FIGS. 45-48, animals were given only water (VEH, n=6) or water with AIT-082 at either 30 mg/kg/day (n=6) or 30 mg/ml (n=6) for seven days. The levels of each growth factor were determined in the frontal cortex (F. Cor.), parietal cortex (P.Cor.), hippocampal formation (Hipp.), basal forebrain (B.F.), cerebellum (Cer.), or spinal cord (Cord) using a specific two-site ELISA for each growth factor.
Adult female rats were given AIT-082 (30 mg/kg/day) in their drinking water or drinking water alone (n=6 for each group) for seven days prior to receiving a bilateral fimbria fornix transection (FFT).
The results are shown in FIGS. 49 (BDNF), 50 (NT-3), 51 (GDNF) and 52 (NGF). […] Levels of the growth factor were determined in frontal cortex (F.Cor.), parietal cortex (P.Cor.), hippocampal formation (Hipp.), basal forebrain (B.F.), cerebellum (Cer.), or spinal cord (Cord) using a specific two-site ELISA for each growth factor. […]
Results are shown in FIGS. 53 (BDNF), 54 (NT3), 55 (GDNF), and 56 (NGF). […] Levels of each growth factor were determined in frontal cortex (F.Cor.), parietal cortex (P. Cor.), hippocampal formation (Hipp.), basal forebrain (B.F.), cerebellum (Cer.) or spinal cord (Cord) using a specific two-site ELISA.

S100β = assay: Summary of effects on growth factor mRNA and protein (Table R): S100β; design: key: ± = mRNA; + = protein; nt = not tested; details: Cultured Cells
Excerpt: The constellation of effects of AIT-082 on production of mRNA encoding growth factors and on production of growth factor proteins is shown in Table R. The results summarized in […] show both transcriptional and translational effects on growth factors that are in the categories of neurotrophins, pleiotrophins, members of the S100 family of EF hand calcium binding proteins, and members of the TGFβ superfamily. As indicated, effects have been shown at both the mRNA (transcriptional) and protein (translational) levels.

mice = assay: Exploratory activity in novel large cage; type: in vivo; details: 30 minutes
Method: To measure exploratory behavior, subjects received saline or AIT-082 administration, were placed in a novel large cage (25×48×16 cm, W×L×H), and movement was measured at one-minute intervals for 30 minutes. The large cage (San Diego Instruments, San Diego, Calif.) was equipped with vertical detectors and rearing movements were also recorded.

neocortical astrocytes = assay: NGF-like immunoreactivity in astrocyte culture medium (ELISA); type: cell-based, mouse; details: astrocytes incubated with different concentrations
Method: Astrocytes appear to proliferate in response to extracellular guanosine or guanosine triphosphate (GTP). GTP or guanosine may also stimulate the release of trophic factors from cultures of neocortical astrocytes from neonatal mouse brains. Astrocytes were incubated with different concentrations of guanosine or GTP respectively. Neurotrophin imunoreactivity in the culture medium from treated cells was then measured by ELISA.
Briefly, 96 well Falcon plates (Fisher) were coated with […] of sheep mono-specific anti-NGF IgG (affinity column purified) contained in 0.1M sodium carbonate buffer pH 9.6. After an overnight incubation at 4° C. blocking solution (PBS with 10% goat serum) was added to remove excess antibody. After a four hour incubation at room temperature the plates were washed three times with PBS containing 0.05% Tween 20. The conditioned media and standard 2.5S HPLC purified NGF were added and incubated overnight. The next day plates were washed 3 times with PBS-0.05% Tween 20. The secondary antibody, rabbit mono-specific anti-NGF IgG conjugated with β-galactosidase (Pierce-SPDP method) (1:500 dilution) was added. The plates were incubated overnight at 4° C. The next day the plates were washed 3 times with PBS-0.05% Tween 20. […]
The ELISA assay detected neurotrophins NGF and NT-3 with ahnost equal affinity and BDNF with 100 times less affinity. […]

`O=C(CCn1cnc2c(=O)[nH]cnc21)Nc1ccc(C(=O)O)cc1` [AIT-082, N-4-carboxyphenyl-3-(6-oxohydropurin-9-yl)propanamide] was tested, and the GDNF protein levels (GDNF; FFT-lesioned rats, 30 mg/kg/day, basal forebrain) was “increased GDNF levels”, the GDNF protein levels (GDNF; aged rats, 30 mg/kg/day 30 days, parietal and frontal cortex) was “restored GDNF protein levels to those of young animals” and the GDNF protein levels (GDNF; intact adult rats, 3000 mg/kg/day, basal forebrain and spinal cord) was “increased GDNF levels”. The “S100β, effect on mRNA/protein production” value (S100β) was “+” and the exploratory activity (mice) was “No effects were noted”.
`Nc1nc2c(ncn2[C@@H]2O[C@H](CO)[C@@H](O)[C@H]2O)c(=O)[nH]1` [guanosine] was tested, and the “NGF-like immunoreactivity in the culture medium” value (neocortical astrocytes) was “increased the amount of NGF-like immunoreactivity”.
